Laboratory results as given in US20080058409A1, “Esterified Catechins, Processes for Producing the Same, and Foods and Beverages as well as Cosmetics Containing Such Esterified Catechins” (priority 2005, published 2008).

How the values were obtained:
[1] = system: Alicyclobacillus acidoterrestris; experiment: Assay of antibacterial activity (growth inhibition) against heat-resistant acidophilic spore-forming bacterium Alicyclobacillus acidoterrestris; format: cell-based; settings: culture temperature 45° C., liquid medium (yeast extract, soluble starch, glucose) adjusted to pH 3.8
Procedure: (§1) Into each well, 50 μl of a nutrient broth (pH 7.0, NISSUI PHARMACEUTICAL CO., LTD.) was added and cultured overnight at 37° C. The light absorbance at 690 nm was measured both at the start and end of the culture by means of a micro-plate reader (Thermolab Systems, Finland). Based on the percent growth inhibition calculated from the following formula, a distribution diagram was constructed plotting percent inhibition and sample concentration on the two axes and the 50% inhibition (IC50) of the spore forming bacterium by the substances of the present invention was determined. Percent growth inhibition (%)=100×{Δ690 (not added)−Δ690 (sample added)}/Δ690 (not added) where Δ690 (not added) refers to the difference between the 690 nm values in the “not-added” group before and after the culture and Δ690 (sample added) refers to the difference between the 690 nm values in the “sample-added” group before and after the culture.
Activity against the heat-resistant acidophilic spore-forming bacterium Alicyclobacillus acidoterrestris was determined by taking the same procedure, except that a change was made in two points, the culture temperature condition and the type of liquid medium [culture temperature: 45° C.; liquid medium: 0.4% dry yeast extract (Difco Laboratories), 0.4% soluble starch (nacalai tesque), 1% glucose (nacalai tesque), adjusted to pH 3.8 with 1 N sulfuric acid].

Bacillus subtilis spores = experiment: Assay of antibacterial activity (growth inhibition, absorbance at 690 nm) against Bacillus subtilis spores; format: cell-based; settings: spores 1×10^7/ml, nutrient broth pH 7.0, cultured overnight at 37° C., percent growth inhibition from absorbance at 690 nm
Procedure: as §1

## Sucrose fatty acid ester [reference compound]
[1]
  IC50 (ppm) A. acidoterrestris: 100-200 ppm
Bacillus subtilis spores
  IC50 (ppm) B. subtilis: 50-100 ppm

## CCCCCCCC(=O)Oc1cc(OC(=O)CCCCCCC)c2c(c1)O[C@H](c1ccc(O)c(O)c1)[C@@H](O)C2 [5,7-di-O-octanoyl-(+)-D-catechin]
[1]
  IC50 (ppm) A. acidoterrestris: 100-200 ppm
Bacillus subtilis spores
  IC50 (ppm) B. subtilis: >400 ppm

## CCCCCCCC(=O)Oc1cc(O)c2c(c1)O[C@H](c1ccc(O)c(O)c1)[C@@H](OC(=O)CCCCCCC)C2 [3,7-di-O-octanoyl-(+)-D-catechin]
[1]
  IC50 (ppm) A. acidoterrestris: 12.5-25 ppm
Bacillus subtilis spores
  IC50 (ppm) B. subtilis: 25-50 ppm

## 3′(or 4′),7-di-O-octanoyl-(+)-D-catechin
[1]
  IC50 (ppm) A. acidoterrestris: 50-100 ppm
Bacillus subtilis spores
  IC50 (ppm) B. subtilis: 6.25-12.5 ppm

## 3′-O-cotanoyl and 4′-octanoyl-(+)-D-catechin
[1]
  IC50 (ppm) A. acidoterrestris: 25-50 ppm
Bacillus subtilis spores
  IC50 (ppm) B. subtilis: 200-400 ppm

## CCCCCCCC(=O)Oc1ccc([C@H]2Oc3cc(O)cc(O)c3C[C@@H]2O)cc1OC(=O)CCCCCCC [3′4′-O-dioctanoyl-(+)-D-catechin]
[1]
  IC50 (ppm) A. acidoterrestris: 12.5-25 ppm
Bacillus subtilis spores
  IC50 (ppm) B. subtilis: >400 ppm

## Catechin [reference compound]
[1]
  IC50 (ppm) A. acidoterrestris: 50-100 ppm
Bacillus subtilis spores
  IC50 (ppm) B. subtilis: >400 ppm

## 3′(or 4′),5-di-O-octanoyl-(+)-D-catechin
[1]
  IC50 (ppm) A. acidoterrestris: 6.25-12.5 ppm
Bacillus subtilis spores
  IC50 (ppm) B. subtilis: 6.25-12.5 ppm

## 3′(or 4′),3-di-O-octanoyl-(+)-D-catechin
[1]
  IC50 (ppm) A. acidoterrestris: 6.25-12.5 ppm
Bacillus subtilis spores
  IC50 (ppm) B. subtilis: 3.125-6.25 ppm

## CCCCCCCC(=O)Oc1cc(O)cc2c1C[C@H](OC(=O)CCCCCCC)[C@@H](c1ccc(O)c(O)c1)O2 [3,5-di-O-octanoyl-(+)-D-catechin]
[1]
  IC50 (ppm) A. acidoterrestris: 50-100 ppm
Bacillus subtilis spores
  IC50 (ppm) B. subtilis: 100-200 ppm
